# According to the supplement of paper PMC10307832:
# What was measured:
# Experiment in all cases: relative viability (nuclei count vs DMSO), 5 days (fraction); higher = more cells survive
# Sorafenib = compound: CNC(=O)c1cc(Oc2ccc(NC(=O)Nc3ccc(Cl)c(C(F)(F)F)c3)cc2)ccn1 [Sorafenib]
# How it was run: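 Lung cancer cell lines received five library-drug doses (not always all listed) spaced by √10, pinned on vehicle-anchored 1536-well plates after an overnight stay at 37 °C. Five days later, with no medium change, nuclei were Hoechst-stained, imaged at 4× and counted with MetaXpress. Viability is treated-well nuclei relative to vehicle-well nuclei, as a median across plates. Passing plates had control CV below 25% and at least one doubling.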
# Sorafenib + Crizotinib = compound: CNC(=O)c1cc(Oc2ccc(NC(=O)Nc3ccc(Cl)c(C(F)(F)F)c3)cc2)ccn1 [Sorafenib] + C[C@@H](Oc1cc(-c2cnn(C3CCNCC3)c2)cnc1N)c1c(Cl)ccc(F)c1Cl [Crizotinib] (partner 1 µM)
# How it was run: (§1)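 After 5 days of treatment, lung cancer cells in 1536-well plates were fixed and stained in a single step (final 0.05% Triton X-100, 1% formaldehyde, 1 ug/ml Hoechst) and their nuclei counted on 4× images. Treatment had been applied by pin tool the day after seeding as one drug alone or as a fixed anchor-drug dose with five library-drug doses (not always all listed) in √10 steps. Relative viability is the nuclei count of treated wells divided by that of vehicle wells, and values are medians of duplicate plates.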
# Sorafenib + Bortezomib = compound: CNC(=O)c1cc(Oc2ccc(NC(=O)Nc3ccc(Cl)c(C(F)(F)F)c3)cc2)ccn1 [Sorafenib] + CC(C)C[C@H](NC(=O)[C@H](Cc1ccccc1)NC(=O)c1cnccn1)B(O)O [Bortezomib] (partner 0.002 µM)
# How it was run: as §1
# Sorafenib + Olaparib = compound: CNC(=O)c1cc(Oc2ccc(NC(=O)Nc3ccc(Cl)c(C(F)(F)F)c3)cc2)ccn1 [Sorafenib] + O=C(c1cc(Cc2n[nH]c(=O)c3ccccc23)ccc1F)N1CCN(C(=O)C2CC2)CC1 [Olaparib] (partner 8 µM)
# How it was run: as §1
# Sorafenib + Alpelisib = compound: CNC(=O)c1cc(Oc2ccc(NC(=O)Nc3ccc(Cl)c(C(F)(F)F)c3)cc2)ccn1 [Sorafenib] + Cc1nc(NC(=O)N2CCC[C@H]2C(N)=O)sc1-c1ccnc(C(C)(C)C(F)(F)F)c1 [Alpelisib] (partner 2 µM)
# How it was run: as §1
# Sorafenib + Linsitinib = compound: CNC(=O)c1cc(Oc2ccc(NC(=O)Nc3ccc(Cl)c(C(F)(F)F)c3)cc2)ccn1 [Sorafenib] + C[C@]1(O)C[C@@H](c2nc(-c3ccc4ccc(-c5ccccc5)nc4c3)c3c(N)nccn32)C1 [Linsitinib] (partner 1 µM)
# How it was run: as §1
# Sorafenib + Lapatinib = compound: CNC(=O)c1cc(Oc2ccc(NC(=O)Nc3ccc(Cl)c(C(F)(F)F)c3)cc2)ccn1 [Sorafenib] + CS(=O)(=O)CCNCc1ccc(-c2ccc3ncnc(Nc4ccc(OCc5cccc(F)c5)c(Cl)c4)c3c2)o1 [Lapatinib] (partner 2 µM)
# How it was run: as §1
# Sorafenib + Navitoclax = compound: CNC(=O)c1cc(Oc2ccc(NC(=O)Nc3ccc(Cl)c(C(F)(F)F)c3)cc2)ccn1 [Sorafenib] + CC1(C)CCC(c2ccc(Cl)cc2)=C(CN2CCN(c3ccc(C(=O)NS(=O)(=O)c4ccc(N[C@H](CCN5CCOCC5)CSc5ccccc5)c(S(=O)(=O)C(F)(F)F)c4)cc3)CC2)C1 [Navitoclax] (partner 0.5 µM)
# How it was run: as §1
# Sorafenib + Pictilisib = compound: CNC(=O)c1cc(Oc2ccc(NC(=O)Nc3ccc(Cl)c(C(F)(F)F)c3)cc2)ccn1 [Sorafenib] + CS(=O)(=O)N1CCN(Cc2cc3nc(-c4cccc5[nH]ncc45)nc(N4CCOCC4)c3s2)CC1 [Pictilisib] (partner 1 µM)
# How it was run: as §1
# Sorafenib + Foretinib = compound: CNC(=O)c1cc(Oc2ccc(NC(=O)Nc3ccc(Cl)c(C(F)(F)F)c3)cc2)ccn1 [Sorafenib] + COc1cc2c(Oc3ccc(NC(=O)C4(C(=O)Nc5ccc(F)cc5)CC4)cc3F)ccnc2cc1OCCCN1CCOCC1 [Foretinib] (partner 0.25 µM)
# How it was run: as §1
# Sorafenib + Luminespib = compound: CNC(=O)c1cc(Oc2ccc(NC(=O)Nc3ccc(Cl)c(C(F)(F)F)c3)cc2)ccn1 [Sorafenib] + CCNC(=O)c1noc(-c2cc(C(C)C)c(O)cc2O)c1-c1ccc(CN2CCOCC2)cc1 [Luminespib] (partner 0.01 µM)
# How it was run: as §1
# Sorafenib + Tozasertib = compound: CNC(=O)c1cc(Oc2ccc(NC(=O)Nc3ccc(Cl)c(C(F)(F)F)c3)cc2)ccn1 [Sorafenib] + Cc1cc(Nc2cc(N3CCN(C)CC3)nc(Sc3ccc(NC(=O)C4CC4)cc3)n2)n[nH]1 [Tozasertib] (partner 0.1 µM)
# How it was run: as §1
# Sorafenib + Phenformin = compound: CNC(=O)c1cc(Oc2ccc(NC(=O)Nc3ccc(Cl)c(C(F)(F)F)c3)cc2)ccn1 [Sorafenib] + N=C(N)NC(=N)NCCc1ccccc1 [Phenformin] (partner 250 µM)
# How it was run: as §1
# Sorafenib + Dasatinib = compound: CNC(=O)c1cc(Oc2ccc(NC(=O)Nc3ccc(Cl)c(C(F)(F)F)c3)cc2)ccn1 [Sorafenib] + Cc1nc(Nc2ncc(C(=O)Nc3c(C)cccc3Cl)s2)cc(N2CCN(CCO)CC2)n1 [Dasatinib] (partner 0.075 µM)
# How it was run: as §1
# Sorafenib + OSI-027 = compound: CNC(=O)c1cc(Oc2ccc(NC(=O)Nc3ccc(Cl)c(C(F)(F)F)c3)cc2)ccn1 [Sorafenib] + COc1cccc2cc(-c3nc([C@H]4CC[C@H](C(=O)O)CC4)n4ncnc(N)c34)[nH]c12 [OSI-027] (partner 0.5 µM)
# How it was run: as §1
cell line,measurement,setting,value
NCI-H1299,relative viability,Sorafenib; 0.08 µM,1.02
same,relative viability,Sorafenib; 0.253 µM,0.963
same,relative viability,Sorafenib; 2.53 µM,0.957
same,relative viability,Sorafenib; 8 µM,0.922
same,relative viability,Sorafenib + Crizotinib; first compound 0.08 µM,0.9
same,relative viability,Sorafenib + Crizotinib; first compound 0.253 µM,0.859
same,relative viability,Sorafenib + Crizotinib; first compound 2.53 µM,0.907
same,relative viability,Sorafenib + Crizotinib; first compound 8 µM,0.688
same,relative viability,Sorafenib + Bortezomib; first compound 0.08 µM,1.02
same,relative viability,Sorafenib + Bortezomib; first compound 0.253 µM,1.04
same,relative viability,Sorafenib + Bortezomib; first compound 2.53 µM,1.01
same,relative viability,Sorafenib + Bortezomib; first compound 8 µM,0.952
same,relative viability,Sorafenib + Olaparib; first compound 0.08 µM,0.903
same,relative viability,Sorafenib + Olaparib; first compound 0.253 µM,0.894
same,relative viability,Sorafenib + Olaparib; first compound 2.53 µM,0.882
same,relative viability,Sorafenib + Olaparib; first compound 8 µM,0.537
same,relative viability,Sorafenib + Alpelisib; first compound 0.08 µM,1.06
same,relative viability,Sorafenib + Alpelisib; first compound 0.253 µM,0.982
same,relative viability,Sorafenib + Alpelisib; first compound 2.53 µM,0.962
same,relative viability,Sorafenib + Alpelisib; first compound 8 µM,0.877
same,relative viability,Sorafenib + Linsitinib; first compound 0.08 µM,0.947
same,relative viability,Sorafenib + Linsitinib; first compound 0.253 µM,0.88
same,relative viability,Sorafenib + Linsitinib; first compound 2.53 µM,0.875
same,relative viability,Sorafenib + Linsitinib; first compound 8 µM,0.946
same,relative viability,Sorafenib + Lapatinib; first compound 0.08 µM,0.933
same,relative viability,Sorafenib + Lapatinib; first compound 0.253 µM,0.86
same,relative viability,Sorafenib + Lapatinib; first compound 2.53 µM,0.874
same,relative viability,Sorafenib + Lapatinib; first compound 8 µM,0.802
same,relative viability,Sorafenib + Navitoclax; first compound 0.08 µM,1.07
same,relative viability,Sorafenib + Navitoclax; first compound 0.253 µM,1.05
same,relative viability,Sorafenib + Navitoclax; first compound 2.53 µM,1.01
same,relative viability,Sorafenib + Navitoclax; first compound 8 µM,0.573
same,relative viability,Sorafenib + Pictilisib; first compound 0.08 µM,0.867
same,relative viability,Sorafenib + Pictilisib; first compound 0.253 µM,0.487
same,relative viability,Sorafenib + Pictilisib; first compound 2.53 µM,0.64
same,relative viability,Sorafenib + Pictilisib; first compound 8 µM,0.253
same,relative viability,Sorafenib + Foretinib; first compound 0.08 µM,1.09
same,relative viability,Sorafenib + Foretinib; first compound 0.253 µM,1.08
same,relative viability,Sorafenib + Foretinib; first compound 2.53 µM,1.02
same,relative viability,Sorafenib + Foretinib; first compound 8 µM,1.05
NCI-H1623,relative viability,Sorafenib; 0.08 µM,0.977
same,relative viability,Sorafenib; 0.253 µM,0.898
same,relative viability,Sorafenib; 2.53 µM,1.06
same,relative viability,Sorafenib; 8 µM,0.945
same,relative viability,Sorafenib + Luminespib; first compound 0.08 µM,0.544
same,relative viability,Sorafenib + Luminespib; first compound 0.253 µM,0.366
same,relative viability,Sorafenib + Luminespib; first compound 2.53 µM,0.611
same,relative viability,Sorafenib + Luminespib; first compound 8 µM,0.342
same,relative viability,Sorafenib + Tozasertib; first compound 0.08 µM,0.431
same,relative viability,Sorafenib + Tozasertib; first compound 0.253 µM,0.397
same,relative viability,Sorafenib + Tozasertib; first compound 2.53 µM,0.476
same,relative viability,Sorafenib + Tozasertib; first compound 8 µM,0.411
same,relative viability,Sorafenib + Phenformin; first compound 0.08 µM,0.651
same,relative viability,Sorafenib + Phenformin; first compound 0.253 µM,0.562
same,relative viability,Sorafenib + Phenformin; first compound 2.53 µM,0.66
same,relative viability,Sorafenib + Phenformin; first compound 8 µM,0.521
same,relative viability,Sorafenib + Foretinib; first compound 0.08 µM,1.06
same,relative viability,Sorafenib + Foretinib; first compound 0.253 µM,0.852
same,relative viability,Sorafenib + Foretinib; first compound 2.53 µM,0.975
same,relative viability,Sorafenib + Foretinib; first compound 8 µM,0.776
same,relative viability,Sorafenib + Dasatinib; first compound 0.08 µM,0.537
same,relative viability,Sorafenib + Dasatinib; first compound 0.253 µM,0.552
same,relative viability,Sorafenib + Dasatinib; first compound 2.53 µM,0.604
same,relative viability,Sorafenib + Dasatinib; first compound 8 µM,0.429
same,relative viability,Sorafenib + OSI-027; first compound 0.08 µM,0.414
same,relative viability,Sorafenib + OSI-027; first compound 0.253 µM,0.411
same,relative viability,Sorafenib + OSI-027; first compound 2.53 µM,0.5
same,relative viability,Sorafenib + OSI-027; first compound 8 µM,0.37
